We go through six molecules from patent publication US20100150844A1, “USE OF 8-QUINOLINOL AND ITS ANALOGS TO TARGET CANCER STEM CELLS” (The Johns Hopkins University, priority 2006, published 2010).

One data set concerns MCF7 sphere cells. Put plainly: Cell proliferation assay (MTT), MCF7 sphere cells. In kind it is cell-based, human. The protocol: (§1) FIG. 2. Susceptibility of MCF7 sphere cells to common anticancer drugs compared with MCF7 cells. Single MCF7 and MCF7 sphere cells were inoculated into 96 well plates at a concentration of 5000 cells per well. After overnight culture, cells were subject to selected clinical drug treatment at the indicated dose for three days. Cell proliferation was determined by MTT assay.
MCF7 and MCF7 sphere cell culture. Human breast cancer cell line MCF7 cells, MDA-MB-435 cells were obtained from ATCC (American Type Culture Collection). Cells were grown in Dulbecco's Modified Eagle's Medium (DMEM) (Invitrogen) supplemented with 10% fetal bovine serum (FBS) (Invitrogen), 100 units/ml penicillin and 100 ug/ml streptomycin (Invitrogen), in a 37° C. incubator containing 5% CO2. To isolate and culture MCF7 sphere cells, SP cells were sorted based on protocol shown below. Sphere cell culture was performed according to published protocol with modifications^28-30. Briefly, single cells were plated in ultralow attachment plates (Corning, N.Y.) at a density of 20,000 viable cells/mL in primary culture and 1000 cells/mL in passages. Cells were grown in a serum-free mammary epithelial growth medium without bovine pituitary extract (MEGM, BioWhittaker), but supplemented with serum substitute B27 (Invitrogen), 20 ng/mL, Epidermal Growth Factor (EGF), 20 ng/mL, and 20 ng/mL basic fibroblast growth factor (bFGF) (BD Biosciences). In order to passage sphere cells, spheres were collected into 15 ml conic tubes and allowed to settle for 15 minutes. Supernatant was removed. Sphere cells were dissociated enzymatically with 0.05% trypsin, 0.5 mM EDTA (Invitrogen) and mechanically by a glass Pasteur pipette. The cells obtained from dissociation were passed through a 40-μm sieve and analyzed microscopically for single cells and subjected to the experiments below.
(§2) Cell proliferation assay. […] Each concentration was repeated three times.

The conditions of data set [1]: in words; solvent DMSO or ethanol.
Another data set has as its system MCF7 SP cells. Nature of the data set: cells. To be noted: Homo sapiens, MCF7, read-out: growth inhibition. The protocol:
(§3) To identify and sort SP and non-SP fractions, cells were washed with phosphate buffered saline (PBS) and detached from the culture dish with trypsin and EDTA, pelleted by centrifugation, and resuspended in 37° C. DMEM containing 2% FBS at 1×10^6 cell/ml. Cell staining was performed according to the protocol originally developed by Goodell et al with slight modification^46. […] Following staining, the cells were spun down and resuspended in Hanks'Balanced Salt Solution (HBSS) (Invitrogen) containing 1 μg/ml propidium iodide and maintained at 4° C. for flow cytometry analysis/sorting. Cell analysis and sorting were performed on a MoFlo cytometer (Dako Cytomation, Fort Collins, Colo. USA) equipped with a Coherent Enterprise II laser emitting MLUV at 351 nm and blue 488 nm lines.
(§4) Cell proliferation assay. To test the sensitivity of MCF7 and MCF7 sphere cells to specific compounds, both MCF7 and MCF7 sphere single cells were seeded at 3×10^4 cells/ml in 96-well plates. After overnight incubation, serial concentrations of tested compounds were added. Each concentration was repeated three times. These cells were incubated in a humidified atmosphere with 5% CO2 for 3 days. […] The medium was removed and formazan was dissolved in DMSO and the optical density was measured at 590 nm using a Bio-assay reader (Bio-Rad, USA).

The next data set concerns MCF7 non-SP cells. Nature of the data set: cells. To be noted: Homo sapiens, MCF7, read-out: growth inhibition. The protocol:
as §3, §4

The test system of another data set is MDA-MB-435 tumor. Put plainly: Antitumor activity in nude mouse xenograft model, MDA-MB-435. In kind it is in vivo. The protocol:
(§5) FIGS. 5A-5F. […] Experiment was performed as described in FIG. 3 and Materials and Methods. B: Structure of NSC125034 and 8Q. […] D: In vivo effect of 8Q (4 mg/Kg) by intratumor injection. […] Mice were treated twice weekly for 3 weeks. Tumor sizes were measured weekly. E: In vivo effect of 8Q (20 mg/Kg) by tail vein injection on two different types of breast cancer cell lines, MCF7 (estrogen dependent, xenograft model reflect the early-stage breast malignancy) and MDA-MB435 (estrogen […], xenograft model reflect the later-stage breast malignancy). Mice were treated twice weekly for 4 weeks. (1) MCF7 xenograft (2) MDA-MB435 xenograft. F: Total body weight of individual mouse in the tail vein injection experiment was determined weekly and the average body weight was plotted.
(§6) Antitumor activity in xenograft model. […] Stock solutions of paclitaxel alone, 8-Quinolinol (8Q) alone or in combination with paclitaxel were prepared by dissolving the drugs in a vehicle solution (EtOH:cremophor, 50:50 v/v). Vehicle or paclitaxel alone, 8Q alone and 8Q in combination with paclitaxel stock solution were mixed with saline (10:90 v/v). For intratumor injection, the 8Q dose was 4 mg/kg, given twice weekly for three weeks. […] The tumor volumes were determined by measuring the length (l) and the width (w) and calculating the volume (V=lw^2/2). […]

The next data set relates to MCF7 xenograft. The note with it: tail vein injection, 8Q 20 mg/kg twice weekly for 4 weeks, FIG. 5E(1). The method, then:
as §5, §6

The conditions of data set [2]: tail vein, 20 mg/kg, nude mice. The method, then: as §5, §6
The conditions of data set [3]: rat, U.S. National Toxicology Program acute toxicity studies; cited from earlier work.
The conditions of data set [4]: mouse, U.S. National Toxicology Program acute toxicity studies; cited from earlier work.
The subject of a further data set is MCF7 cells. Put plainly: Cell proliferation assay (MTT), MCF7 parental cells. In kind it is cell-based, human. The protocol: as §1, §2
In data set [5] the test system is NF-κB. Put plainly: Trans-AM NF-κB assay on nuclear extracts of MCF7 sphere cells. It counts as cell-based, human. To be noted: 5 μM, 24 hours. The method, then:
(§7) FIGS. 3A-3B. A: Susceptibility of MCF7 and MCF7 sphere cells PI3K pathway inhibitor, rapamycin and NF-κB pathway inhibitors, PTL and PDTC at indicated doses. Experiment was performed as described in FIG. 2 and Materials and Methods. B: Inhibition of NF-κB activity of MCF7 and MCF7 sphere cells after treatment with PTL and PDTC at indicated concentrations. Cells were treated with these compounds at indicated doses for 24 hours. Nuclear extract was prepared from control and treated cells. The quantification of NF-κB activation was performed according to product manual. Nuclear extract preparation. […] After the nuclear lysates were centrifuged, supernatants were collected for quantification of NF-κB activation. The protein concentrations in the supernatants were determined using the BCA protein assay kit (Pierce, Rockford, Ill.). Quantification of NF-κB activation. Trans-AM NF-κB assay, an enzyme-linked immunosorbent assay (ELISA)-based method (Trans-AM NF-κB; Active Motif, Carlsbad, Calif.) was used for NF-κB activity quantification according to the manufacturer's instruction. Briefly, cell nuclear extracts were placed in 96-well plates coated with an oligonucleotide containing the NF-κB consensus sequence, and the presence of active NF-κB was detected by using antibodies specific for p50 subunits that are not complexed to IκB and thus able to bind the consensus sequence. […]

Data set [6] deals with NF-κB. Nature of the data set: Trans-AM NF-κB assay on nuclear extracts of MCF7 cells. It counts as cell-based. The note with it: Homo sapiens, 24 hours. The protocol:
as §7

[7] abbreviates: comparison sphere versus parental cells, in words.

Entries after “also recorded” stand apart in the source; their conditions may differ. Like-named read-outs stand apart in the source and are kept apart here. Non-standard residues stand in square brackets, D forms with d. Residues, ends and D or L forms follow the SMILES beside them. *: point of attachment. Nle = CCCC[C@H](N)C(=O)O; Cbz = O=C(OCc1ccccc1)*

`CC1=C2C[C@H]3[C@@H](CC=C4C[C@@H](O)CC[C@@]43C)[C@@H]2CC[C@]12O[C@@H]1C[C@H](C)CN[C@H]1[C@H]2C` [cyclopamine]: the “growth inhibition on MCF7 sphere cells compared with MCF7 cells” value (from here on “growth inhibition … compared with MCF7 cells”) with MCF7 sphere cells was “did not inhibit MCF7 sphere cells more than the MCF7 parental cells; also recorded: no higher growth inhibitor ability on MCF7 sphere cells than MCF7 cells”.
For `Oc1cccc2cccnc12` [8Q, 8-quinolinol], the solubility entry in [1] was “Ethanol soluble”. Moreover, the inhibition at 5 µM with MCF7 SP cells came out at 84.7%; in the data set on MCF7 non-SP cells, 71.9%; with MCF7 sphere cells (Homo sapiens, 72 h, 5 μM, three day treatment, MCF7 sphere cells, read-out: growth inhibition), 86%; with MCF7 cells (Homo sapiens, MCF7, 72 h, read-out: growth inhibition), 30%. The tumor growth inhibition entry was “significantly inhibited tumor growth” in the data set on MDA-MB-435 tumor (intratumor injection, 8Q 4 mg/kg twice weekly for 3 weeks, FIG. 5D) and “significantly inhibited tumor growth” in the data set with MCF7 xenograft. For the same molecule, the “toxicity judged by apparent symptoms and body weight loss” value in data set [2] was “did not show significant toxicity”. The “growth inhibition … compared with MCF7 cells” value in the data set with MCF7 sphere cells (setting [7]) was “preferentially inhibit the cancer stem cells over bulk cancer cells”. Also, the “LD50 (oral)” value in data set [3] is 1.2 g/kg; in data set [4], 20 g/kg.
`CCCC[C@@H](C=O)NC(=O)[C@H](CC(C)C)NC(=O)[C@H](CC(C)C)NC(=O)OCc1ccccc1` [GSI1] (Cbz-Leu-Leu-[Nle]-aldehyde): in the data set with MCF7 sphere cells (setting [7]), the “growth inhibition … compared with MCF7 cells” value was “did not inhibit MCF7 sphere cells more than the MCF7 parental cells; also recorded: no higher growth inhibitor ability on MCF7 sphere cells than MCF7 cells”.
Take `CC(=O)O[C@H]1C(=O)[C@@]2(C)[C@H]([C@H](OC(=O)c3ccccc3)[C@]3(O)C[C@H](OC(=O)[C@H](O)[C@@H](NC(=O)c4ccccc4)c4ccccc4)C(C)=C1C3(C)C)[C@]1(OC(C)=O)CO[C@@H]1C[C@@H]2O` [paclitaxel]: in the data set on MDA-MB-435 tumor (positive control, paclitaxel 15 mg/kg), the tumor growth inhibition entry is “inhibited the tumor growth as expected”. Also, the inhibition at 0.25 µM was 6.1% in the data set with MCF7 sphere cells (Homo sapiens, 72 h, 0.25 uM, 3 days, MCF7 sphere cells, read-out: growth inhibition) and 44.5% in the data set on MCF7 cells (Homo sapiens, 72 h, 0.25 uM, 3 days, MCF7 parental cells, read-out: growth inhibition).
On to `S=C(S)N1CCCC1` [PDTC, pyrrolidine dithiocarbamate], for which the “decrease of NF-κB activity” value in the data set on NF-κB [5] is reported as 61.8%. Besides, in the data set with NF-κB [6], at 5 µM the inhibition was 33.6%. In the data set on MCF7 sphere cells (Homo sapiens, 1 uM, MCF7 sphere cells, read-out: growth inhibition), the inhibition at 1 µM is 50.8%. Also, in the data set with MCF7 sphere cells (setting [7]), the “growth inhibition … compared with MCF7 cells” value is reported as “inhibit MCF7 sphere cells more strongly than the parental MCF7 cells; also recorded: very marked growth inhibition on MCF7 sphere cells compared to MCF7 cells”. Besides, in the data set on MCF7 cells (1 uM, MCF7 cells), the growth inhibition entry was “no growth inhibition effects”.

B1: DKK1: Wnt pathway inhibitor (protein, UniProt O94907 32-266, looked up)
Dickkopf-related protein 1: TLNSVLNSNAIKNLPPPLGGAAGHPGSAVSAAPGILYPGGNKYQTIDNYQPYPCAEDEECGTDEYCASPTRGGDAGVQICLACRKRRKRCMRHAMCCPGNYCKNGICVSSDQNHFRGEIEETITESFGNDHSTLDGYSRRTTLSSKMYHTKGQEGSVCLRSSDCASGLCCARHFWSKICKPVLKEGQVCTKHRRKGSHGLEIFQRCYCGEGLSCRIQKDHHQASNSSRLHTCQRH
Consider B1, for which the “growth inhibition … compared with MCF7 cells” value with MCF7 sphere cells (setting [7]) is recorded as “no higher growth inhibitor ability on MCF7 sphere cells than MCF7 cells”; with MCF7 sphere cells (comparison sphere versus parental cells, in words, listed as DKKI), “did not inhibit MCF7 sphere cells more than the MCF7 parental cells”.

As a reminder, the inhibition is how much of the control response was suppressed.
